# Measured values as given in US6737383B1, “Herbicidal oxadiazolidines” (priority 1999, dated 2004).
# How the values were obtained:
# cocklebur = assay: Test B pre/postemergence cocklebur; format: in vivo, Xanthium strumarium
# Summary of the method: (§1)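 Test chemicals in a non-phytotoxic solvent mixture with surfactant were sprayed preemergence onto planted seeds and postemergence onto plants 2 to 18 cm tall (1- to 4-leaf stage). After twelve to sixteen days in a greenhouse, injury was visually rated against untreated controls from 0 (no effect) to 10 (complete control).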
# rice = assay: Test B flood test rice; format: in vivo, Oryza sativa
# Summary of the method: (§2)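 Each value is a visual injury score relative to controls, with 10 meaning complete control and 0 no effect. Evaluation took place twelve to sixteen days after the 2-leaf-stage plants were treated and kept in the greenhouse.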
# crabgrass = assay: Test B pre/postemergence crabgrass; format: in vivo, Digitaria sanguinalis
# Summary of the method: as §1
# wheat = assay: Test B pre/postemergence wheat; format: in vivo, Triticum aestivum
# Summary of the method: as §1
# pigweed = assay: Test B pre/postemergence pigweed; format: in vivo, Amaranthus retroflexus
# Summary of the method: as §1
# bamyardgrass = assay: Test B flood test barnyardgrass; format: in vivo, Echinochloa crus-galli
# Summary of the method: as §2
# smallflower flatsedge = assay: Test B flood test smallflower flatsedge; format: in vivo, Cyperus difformis
# Summary of the method: as §2
# wild oat = assay: Test B pre/postemergence wild oat; format: in vivo, Avena fatua
# Summary of the method: as §1
# giant foxtail = assay: Test B pre/postemergence giant foxtail; format: in vivo, Setaria faberii
# Summary of the method: as §1
# duck salad = assay: Test B flood test duck salad; format: in vivo, Heteranthera limosa
# Summary of the method: as §2
# rape = assay: Test B pre/postemergence rape; format: in vivo, Brassica napus
# Summary of the method: as §1
# corn = assay: Test B pre/postemergence corn; format: in vivo, Zea mays
# Summary of the method: as §1
# morningglory = assay: Test B pre/postemergence morningglory; format: in vivo, Ipomoea hederacea
# Summary of the method: as §1
# surinam grass = assay: Test B pre/postemergence surinam grass; format: in vivo, Brachiaria decumbens
# Summary of the method: as §1
# sugar beet = assay: Test B pre/postemergence sugar beet; format: in vivo, Beta vulgaris
# Summary of the method: as §1
# purple nutsedge = assay: Test B pre/postemergence purple nutsedge; format: in vivo, Cyperus rotundus
# Summary of the method: as §1
# [1] = Preemergence, Rate 62 g/ha, scale of 0 to 10 where 0 is no effect and 10 is complete control
# [2] = Preemergence, Rate 125 g/ha, 0 is no effect, 10 is complete control
# [3] = Preemergence, Rate 250 g/ha, scale 0 to 10, 0 is no effect, 10 is complete control
# [4] = Preemergence, Rate 500 g/ha, scale of 0 to 10 where 0 is no effect and 10 is complete control
# [5] = Rate 62 g/ha, Postemergence, scale of 0 to 10 where 0 is no effect and 10 is complete control
# [6] = Rate 125 g/ha, Postemergence, scale 0 to 10
# [7] = Rate 500 g/ha, Postemergence, scale 0 to 10
# [8] = Rate 62 g/ha, headed Pre-emergence (flood test species), scale 0 to 10 (0 no effect, 10 complete control)
# [9] = Rate 125 g/ha, Pre-emergence, flood test species, scale 0 to 10 where 0 is no effect and 10 is complete control
# [10] = Rate 250 g/ha, Pre-emergence, flood-test species, scale 0 to 10, 0 is no effect, 10 is complete control
# [11] = Rate 500 g/ha, Pre-emergence, flood test species, scale 0 to 10 (0 no effect, 10 complete control)
structure (smiles),measurement,setting,value
CC(C)N(C(=O)n1oc(=O)n(Cc2ccco2)c1=O)c1ccc(Cl)cc1 [Compound 206],Cocklebur plant response rating,cocklebur; [1],0
same,Cocklebur plant response rating (0 to 10 scale),cocklebur; [2],0
same,Cocklebur plant response rating,cocklebur; [3],0
same,"Plant response rating, Cocklebur",cocklebur; [4],0
same,Cocklebur plant response rating,cocklebur; [5],0
same,Cocklebur plant response rating,cocklebur; [6],0
same,"Plant response rating (0 to 10; 0 is no effect, 10 is complete control), Cocklebur","cocklebur; Rate 250 g/ha, Postemergence",0
same,Cocklebur plant response rating,cocklebur; [7],0
same,Rice plant response rating,rice; [8],0
same,Rice plant response rating,rice; [9],0
same,Rice plant response rating,rice; [10],0
same,Rice plant response rating,rice; [11],0
same,Crabgrass plant response rating,crabgrass; [1],0
same,Crabgrass plant response rating (0 to 10 scale),crabgrass; [2],0
same,Crabgrass plant response rating,crabgrass; [3],3
same,"Plant response rating, Crabgrass",crabgrass; [4],8
same,Crabgrass plant response rating,crabgrass; [5],0
same,Crabgrass plant response rating,crabgrass; [6],0
same,"Plant response rating (0 to 10; 0 is no effect, 10 is complete control), Crabgrass","crabgrass; Rate 250 g/ha, Postemergence",0
same,Crabgrass plant response rating,crabgrass; [7],0
same,Wheat plant response rating,wheat; [1],0
same,Wheat plant response rating,wheat; [3],0
same,"Plant response rating, Wheat",wheat; [4],0
same,Wheat plant response rating,wheat; [5],0
same,Wheat plant response rating,wheat; [6],0
same,"Plant response rating (0 to 10; 0 is no effect, 10 is complete control), Wheat","wheat; Rate 250 g/ha, Postemergence",0
same,Redroot pigweed plant response rating,pigweed; [1],0
same,Redroot pigweed plant response rating (0 to 10 scale),pigweed; [2],0
same,Redroot pigweed plant response rating,pigweed; [3],0
same,"Plant response rating, Redroot pigweed",pigweed; [4],3
same,Redroot pigweed plant response rating,pigweed; [5],0
same,Redroot pigweed plant response rating,pigweed; [6],0
same,"Plant response rating (0 to 10; 0 is no effect, 10 is complete control), Redroot pigweed","pigweed; Rate 250 g/ha, Postemergence",3
same,Redroot pigweed plant response rating,pigweed; [7],0
same,Barnyardgrass plant response rating,bamyardgrass; [8],0
same,Barnyardgrass plant response rating,bamyardgrass; [9],0
same,Barnyardgrass plant response rating,bamyardgrass; [10],0
same,Barnyardgrass plant response rating,bamyardgrass; [11],0
same,S. Flatsedge plant response rating,smallflower flatsedge; [8],0
same,S. Flatsedge plant response rating,smallflower flatsedge; [9],0
same,S. Flatsedge plant response rating,smallflower flatsedge; [10],0
same,S. Flatsedge plant response rating,smallflower flatsedge; [11],0
same,Wild oats plant response rating,wild oat; [1],0
same,Wild oats plant response rating,wild oat; [3],0
same,"Plant response rating, Wild oats",wild oat; [4],0
same,Wild oats plant response rating,wild oat; [5],0
same,Wild oats plant response rating,wild oat; [6],0
same,"Plant response rating (0 to 10; 0 is no effect, 10 is complete control), Wild oats","wild oat; Rate 250 g/ha, Postemergence",0
same,Giant foxtail plant response rating,giant foxtail; [1],0
same,Giant foxtail plant response rating (0 to 10 scale),giant foxtail; [2],3
same,Giant foxtail plant response rating,giant foxtail; [3],8
same,"Plant response rating, Giant foxtail",giant foxtail; [4],9
same,Giant foxtail plant response rating,giant foxtail; [5],0
same,Giant foxtail plant response rating,giant foxtail; [6],0
same,"Plant response rating (0 to 10; 0 is no effect, 10 is complete control), Giant foxtail","giant foxtail; Rate 250 g/ha, Postemergence",0
same,Giant foxtail plant response rating,giant foxtail; [7],0
same,Ducksalad plant response rating,duck salad; [8],0
same,Ducksalad plant response rating,duck salad; [9],0
same,Ducksalad plant response rating,duck salad; [10],0
same,Ducksalad plant response rating,duck salad; [11],0
same,Rape plant response rating,rape; [1],0
same,Rape plant response rating (0 to 10 scale),rape; [2],0
same,Rape plant response rating,rape; [3],0
same,"Plant response rating, Rape",rape; [4],0
same,Rape plant response rating,rape; [5],0
same,Rape plant response rating,rape; [6],0
same,"Plant response rating (0 to 10; 0 is no effect, 10 is complete control), Rape","rape; Rate 250 g/ha, Postemergence",0
same,Rape plant response rating,rape; [7],0
same,Corn plant response rating,corn; [1],0
same,Corn plant response rating (0 to 10 scale),corn; [2],0
same,Corn plant response rating,corn; [3],0
same,"Plant response rating, Corn",corn; [4],0
same,Corn plant response rating,corn; [5],0
same,Corn plant response rating,corn; [6],0
same,"Plant response rating (0 to 10; 0 is no effect, 10 is complete control), Corn","corn; Rate 250 g/ha, Postemergence",0
same,Corn plant response rating,corn; [7],0
same,Morningglory plant response rating,morningglory; [1],0
same,Morningglory plant response rating (0 to 10 scale),morningglory; [2],0
same,Morningglory plant response rating,morningglory; [3],0
same,"Plant response rating, Morningglory",morningglory; [4],0
same,Morningglory plant response rating,morningglory; [5],1
same,Morningglory plant response rating,morningglory; [6],1
same,"Plant response rating (0 to 10; 0 is no effect, 10 is complete control), Morningglory","morningglory; Rate 250 g/ha, Postemergence",2
same,Morningglory plant response rating,morningglory; [7],5
same,B. signalgrass plant response rating,surinam grass; [1],0
same,B. signalgrass plant response rating (0 to 10 scale),surinam grass; [2],0
same,B. signalgrass plant response rating,surinam grass; [3],0
same,"Plant response rating, B. signalgrass",surinam grass; [4],0
same,B. signalgrass plant response rating,surinam grass; [5],0
same,B. signalgrass plant response rating,"surinam grass; Rate 125 g/ha, Postemergence, scale 0 (no effect) to 10 (complete control)",0
same,"Plant response rating, B. signalgrass","surinam grass; Rate 250 g/ha, Postemergence, scale 0 to 10, 0 is no effect, 10 is complete control",0
same,B. signalgrass plant response rating,"surinam grass; Rate 500 g/ha, Postemergence, scale 0 to 10, 0 no effect, 10 complete control",0
same,Sugarbeets plant response rating,sugar beet; [1],0
same,Sugarbeets plant response rating (0 to 10 scale),sugar beet; [2],0
same,Sugarbeets plant response rating,sugar beet; [3],0
same,"Plant response rating, Sugarbeets",sugar beet; [4],0
same,Sugarbeets plant response rating,sugar beet; [5],0
same,Sugarbeets plant response rating,sugar beet; [6],0
same,"Plant response rating (0 to 10; 0 is no effect, 10 is complete control), Sugarbeets","sugar beet; Rate 250 g/ha, Postemergence",0
same,Sugarbeets plant response rating,sugar beet; [7],0
same,Nutsedge plant response rating,purple nutsedge; [1],0
same,Nutsedge plant response rating (0 to 10 scale),purple nutsedge; [2],0
same,Nutsedge plant response rating,purple nutsedge; [3],0
same,"Plant response rating, Nutsedge",purple nutsedge; [4],0
same,Nutsedge plant response rating,purple nutsedge; [5],0
same,Nutsedge plant response rating,purple nutsedge; [6],0
same,"Plant response rating (0 to 10; 0 is no effect, 10 is complete control), Nutsedge","purple nutsedge; Rate 250 g/ha, Postemergence",0
same,Nutsedge plant response rating,purple nutsedge; [7],0
